# Measurements as given in PMC7822874, “Chemoprotective antimalarials identified through quantitative high-throughput screening of Plasmodium blood and liver stage parasites” (Scientific Reports, 2021).
# Like-named read-outs stand apart in the source and are kept apart here.
# Assays:
# [1] = system: P. berghei-ANKA-GFP-LucCON liver stage parasites in HepG2-A16-CD81EGFP cells; experiment: P. berghei liver stage Pb-Luc assay, Method 1 (UCSD, 1536-well); assay type: cell-based, Plasmodium berghei; settings: Plasmodium berghei, 48 h; for Pb-Luc signal, 1 uM, repeat 1: reference of the scale not given here; for Pb-Luc signal, 1 uM, repeat 2: reference of the scale not given here; for Pb-Luc signal, 1 uM, repeat 3: reference of the scale not given here; for Pb-Luc signal, 3 uM, repeat 1: reference of the scale not given here; for Pb-Luc signal, 3 uM, repeat 2: reference of the scale not given here; for Pb-Luc signal, 3 uM, repeat 3: reference of the scale not given here
# [2] = system: Plasmodium falciparum Dd2 asexual blood stage parasites; experiment: microbe, parasite or virus in culture; parameters: species or system Plasmodium falciparum Dd2 in human erythrocytes; single determination (one 11-point concentration-response curve); settings: Plasmodium falciparum, DD2, Erythrocyte, 72 h
# in vitro = settings: human
# [3] = read-out: Pb-Luc P. berghei liver stage signal, repeat 1
# [4] = read-out: Pb-Luc P. berghei liver stage signal, repeat 2
# [5] = read-out: Pb-Luc P. berghei liver stage signal, repeat 3
# [6] = nominal 1 uM (10 mM stock), […] for 15 mM, 1.2 uM for 12 mM, 2 uM for 20 mM stock, average of 2 wells, 1536-well plate, repeat 1, read-out: Pb-Luc signal, 1 uM, repeat 1
# [7] = nominal 1 uM (10 mM stock), […] for 15 mM, 1.2 uM for 12 mM, 2 uM for 20 mM stock, average of 2 wells, 1536-well plate, repeat 2, read-out: Pb-Luc signal, 1 uM, repeat 2
# [8] = nominal 1 uM (10 mM stock), […] for 15 mM, 1.2 uM for 12 mM, 2 uM for 20 mM stock, average of 2 wells, 1536-well plate, repeat 3, read-out: Pb-Luc signal, 1 uM, repeat 3
# [9] = nominal 3 uM (10 mM stock), 4.5 uM for 15 mM, 3.6 uM for 12 mM, 6 uM for 20 mM stock, average of 2 wells, 1536-well plate, repeat 1, read-out: Pb-Luc signal, 3 uM, repeat 1
# [10] = nominal 3 uM (10 mM stock), 4.5 uM for 15 mM, 3.6 uM for 12 mM, 6 uM for 20 mM stock, average of 2 wells, 1536-well plate, repeat 2, read-out: Pb-Luc signal, 3 uM, repeat 2
# [11] = nominal 3 uM (10 mM stock), 4.5 uM for 15 mM, 3.6 uM for 12 mM, 6 uM for 20 mM stock, average of 2 wells, 1536-well plate, repeat 3, read-out: Pb-Luc signal, 3 uM, repeat 3
# [12] = nominal 1 uM (10 mM stock), […] for 15 mM, 1.2 uM for 12 mM, 2 uM for 20 mM stock, average of 2 wells, repeat 2
# [13] = nominal 3 uM (10 mM stock), 4.5 uM for 15 mM, 3.6 uM for 12 mM, 6 uM for 20 mM stock, average of 2 wells, repeat 2
# [14] = HepG2-A16-CD81EGFP cells, uninfected
SMILES,"activity at 1 µM [1, 6]","activity at 1 µM [1, 7]","activity at 1 µM [1, 8]","activity at 3 µM [1, 9]","activity at 3 µM [1, 10]","activity at 3 µM [1, 11]",AC50 ([2]; read-out: AC50),"HepG2 viability signal, 1 uM, repeat 2 (HepG2-A16-CD81EGFP cells; [12])","HepG2 viability signal, 3 uM, repeat 2 (HepG2-A16-CD81EGFP cells; [13])","viability at 48 h, 1 µM (in vitro; [14])","viability at 48 h, 3 µM (in vitro; [14])",also measured
Cc1ccc(O)c([C@H](CCN(C(C)C)C(C)C)c2ccccc2)c1 [NCGC00159519-02],–,–,–,–,–,–,–,–,–,–,–,"activity at 1 µM [1, 3]: 106%; activity at 3 µM [1, 3]: 74.9%; activity at 1 µM [1, 4]: 80%; activity at 3 µM [1, 4]: 85.4%; activity at 1 µM [1, 5]: 106%; activity at 3 µM [1, 5]: 89%; AC50 [2]: 4220 nM; HepG2 viability, fourth HepG2 column (HepG2-A16-CD81EGFP cells; human): 99.21%; HepG2 viability, second HepG2 column (HepG2-A16-CD81EGFP cells; human): 104.09%; HepG2 viability, third HepG2 column (HepG2-A16-CD81EGFP cells; human): 100.98%; viability (in vitro): 103%"
CC(C)C(=O)N1Cc2ccccc2CC2(CCCN(CC3CCCCC3)C2)C1 (stereo not drawn) [NCGC00377456-01],94.7%,96.1%,116%,81.5%,98%,85.1%,53.1 nM,102.51%,104.36%,100%,105%,–
COc1ccc2[nH]c(C[C@@H]3C[C@@H](C(C)C)[C@H](CNCc4ccccc4OC)C=C3C)nc2c1 [NCGC00392082-01],67%,80.5%,77.5%,48.5%,52%,40.1%,9440 nM,98.07%,97.57%,99%,97.1%,–
COc1ccc(-c2cc([C@H]3CN4CC[C@H]3C[C@@H]4CN[S+](=O)([O-])c3ccc(Cl)cc3)n(C)n2)cc1OC [NCGC00399828-01],68.5%,88.1%,52.2%,40.7%,77%,89.6%,2990 nM,–,–,–,–,"HepG2 viability signal, 1 uM, repeat 2 (HepG2-A16-CD81EGFP cells; human, 48 h, 1 µM): 102.24%; HepG2 viability signal, 3 uM, repeat 2 (HepG2-A16-CD81EGFP cells; human, 48 h, 3 µM): 102.23%; viability at 48 h, 1 µM (in vitro): 98.9%; viability at 48 h, 3 µM (in vitro): 99.9%"
O[C@H]1CC[C@@H](Cc2cc(-c3ccc(F)cc3)on2)O[C@@H]1CNC1CCCCC1 [NCGC00401034-01],123%,102%,154%,112%,106%,134%,2430 nM,105.13%,100.53%,104%,107%,–
COC(=O)c1ccc2[nH]c(C[C@@H]3C[C@@H](C(C)C)[C@H](CNC4CCCCC4)C=C3C)nc2c1 [NCGC00401987-01],81.1%,132%,98.9%,56.8%,65%,83.4%,8410 nM,103.84%,105.05%,99.2%,102%,–
c1ccc(Nc2cc3c(cn2)CN(Cc2ccc4[nH]ccc4c2)CCN3)cc1 [NCGC00411105-01],55.9%,72.5%,17.8%,23.8%,30.2%,10.7%,1370 nM,44.56%,55.41%,40.4%,43.5%,–
Oc1ccccc1-c1cc(-c2cccnc2)c2cncn2c1 [NCGC00412170-01],103%,117%,108%,100%,122%,76.4%,1720 nM,95.01%,100.05%,98.3%,101%,–
COc1cc2c(cc1OCc1ccccc1)N(C(=O)c1cc3ccccc3[nH]1)CC21CCN(C)CC1 [NCGC00419851-01],59.5%,89.6%,74.1%,16.8%,54.6%,95.7%,944 nM,–,–,–,–,"HepG2 viability signal, 1 uM, repeat 2 (HepG2-A16-CD81EGFP cells; human, 48 h, 1 µM): 101.97%; HepG2 viability signal, 3 uM, repeat 2 (HepG2-A16-CD81EGFP cells; human, 48 h, 3 µM): 102.28%; viability at 48 h, 1 µM (in vitro): 99%; viability at 48 h, 3 µM (in vitro): 98.9%"
CC1=C[C@@H](CN(C)C)[C@H](C(C)C)C[C@H]1Cc1nc2ncc(Cl)cc2[nH]1 [NCGC00421128-01],85.6%,76%,112%,59.7%,57.2%,82.1%,21700 nM,100.56%,100.80%,106%,108%,–
CCC(CC)c1cc([C@H]2CN3CC[C@H]2C[C@@H]3CN[S+](=O)([O-])c2ccccc2C#N)nc(-c2ccncc2)n1 [NCGC00421343-01],72%,78.5%,103%,49%,52%,66.9%,1500 nM,–,–,–,–,"HepG2 viability signal, 1 uM, repeat 2 (HepG2-A16-CD81EGFP cells; human, 48 h, 1 µM): 105.19%; HepG2 viability signal, 3 uM, repeat 2 (HepG2-A16-CD81EGFP cells; human, 48 h, 3 µM): 104.55%; viability at 48 h, 1 µM (in vitro): 110%; viability at 48 h, 3 µM (in vitro): 110%"
COc1cc(C(=O)NC2CCCc3c2[nH]c2c(Cl)cccc32)cc(OC)c1OC (stereo not drawn) [NCGC00424034-01],122%,161%,165%,157%,165%,156%,2110 nM,98.86%,98.35%,101%,98.2%,–
O=C(Nc1ccc2c(N3CCCC3)ncnc2c1)c1cccc(Br)c1 [NCGC00425495-01],70.5%,86.1%,85.5%,34.5%,39.4%,21.9%,668 nM,101.29%,98.07%,101%,97.5%,–
O=C(Nc1ccc2c(N3CCCC3)ncnc2c1)c1cccc(F)c1 [NCGC00425501-01],97.2%,101%,106%,56.8%,72.2%,29.3%,4730 nM,97.92%,95.12%,98.5%,94.4%,–
O=C(Nc1ccc2c(N3CCOCC3)ncnc2c1)c1ccc(Br)o1 [NCGC00425547-01],126%,99.1%,129%,123%,89.4%,131%,2660 nM,103.01%,102.12%,110%,106%,–
